According to US12252524B2, “GIP/GLP1 co-agonist compounds” (Eli Lilly and Company, priority 2018, dated 2025):
Numbered stars: 1 amine (or outer) side, 2 acyl side, 3 side chain; on linkers, the order of the positions; unused ones are H or OH. Square brackets hold non-standard residues; d marks the D form. Side chains are listed from the residue outwards. Peptide text beside a SMILES is read from it. * marks the point of attachment. C20 diacid = O=C(O)CCCCCCCCCCCCCCCCCCC(=O)*; C18 diacid = O=C(O)CCCCCCCCCCCCCCCCC(=O)*; αMePhe(2-F) = C[C@](N)(Cc1ccccc1F)C(=O)O; γGlu = O=C(O)[C@H](CCC(=O)[*:2])N[*:1]; αMeF = C[C@](N)(Cc1ccccc1)C(=O)O; αMeL = CC(C)C[C@](C)(N)C(=O)O; AEEA = NCCOCCOCC(=O)O; Aib = CC(C)(N)C(=O)O

What was measured:
human GIP receptor = target: T1, human GIP receptor (Homo sapiens, UniProt P48546); assay: [125I]-GIP binding (SPA), human GIP receptor; conditions: read-out: hGIPR Ki, nM (SEM, n)
T1 construct: expressed in transfected cells; crude membranes
T1 sequence (P48546 22-466): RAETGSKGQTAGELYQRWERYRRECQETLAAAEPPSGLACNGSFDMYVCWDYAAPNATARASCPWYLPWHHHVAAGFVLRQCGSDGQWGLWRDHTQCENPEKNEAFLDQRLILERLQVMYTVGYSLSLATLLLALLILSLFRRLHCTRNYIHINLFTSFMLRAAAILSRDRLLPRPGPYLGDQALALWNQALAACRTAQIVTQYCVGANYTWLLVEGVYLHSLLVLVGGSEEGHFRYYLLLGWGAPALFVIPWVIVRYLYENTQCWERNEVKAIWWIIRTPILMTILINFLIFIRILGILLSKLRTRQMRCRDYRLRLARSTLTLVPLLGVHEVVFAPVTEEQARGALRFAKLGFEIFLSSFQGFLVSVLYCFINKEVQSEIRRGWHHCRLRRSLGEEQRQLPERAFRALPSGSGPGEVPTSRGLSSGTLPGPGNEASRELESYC

human Gcg receptor = target: T2, human Gcg receptor (Homo sapiens, UniProt P47871); assay: [125I]-Glucagon binding (SPA), human Gcg receptor; conditions: read-out: hGLcgR Ki, nM (SEM, n)
T2 construct: expressed in transfected cells; crude membranes
T2 sequence (P47871 26-477): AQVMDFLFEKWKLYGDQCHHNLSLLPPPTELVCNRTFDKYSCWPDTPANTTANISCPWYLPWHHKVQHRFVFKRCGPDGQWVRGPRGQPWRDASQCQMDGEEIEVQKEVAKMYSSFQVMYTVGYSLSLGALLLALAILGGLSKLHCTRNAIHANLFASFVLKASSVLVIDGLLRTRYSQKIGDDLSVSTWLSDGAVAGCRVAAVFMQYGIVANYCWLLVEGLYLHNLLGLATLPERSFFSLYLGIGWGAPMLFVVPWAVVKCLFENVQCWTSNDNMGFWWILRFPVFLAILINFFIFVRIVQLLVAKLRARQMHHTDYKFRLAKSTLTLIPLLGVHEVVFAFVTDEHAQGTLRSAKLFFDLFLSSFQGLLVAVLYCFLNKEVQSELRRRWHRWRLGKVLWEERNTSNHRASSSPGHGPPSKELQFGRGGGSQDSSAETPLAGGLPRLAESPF
Method in brief: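 Crude membranes from cells expressing the receptor, prepared by hypotonic lysis in 50 mM Tris HCl pH 7.5 with protease inhibitors, homogenization and differential centrifugation, were used in a WGA-bead SPA. Binding buffer: 25 mM HEPES pH 7.4, 2.5 mM CaCl2, 1 mM MgCl2, bacitracin, Tween-20.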

[1] = target: T3, gastric inhibitory peptide receptor (GIPR) (Homo sapiens, UniProt P48546); assay: cAMP pharmacological functional assay in presence of casein, hGIPR; assay type: cell-based; conditions: HEK293 cells expressing hGIPR, 0.1% Casein, geometric mean; read-out: hGIPR cAMP Rel EC50 nM (SEM, n)
T3 sequence (P48546 22-466): T1 sequence (P48546 22-466)

[2] = target: human GLP-1 receptor (GLP-1R) (Homo sapiens, UniProt P43220); assay: cAMP pharmacological functional assay in presence of casein, hGLP-1R; assay type: cell-based; conditions: HEK293 cells expressing hGLP-1R, 0.1% Casein, geometric mean; read-out: hGLP1R cAMP Rel EC50 nM (SEM, n)
Chain of human GLP-1 receptor (GLP-1R) (P43220 24-463): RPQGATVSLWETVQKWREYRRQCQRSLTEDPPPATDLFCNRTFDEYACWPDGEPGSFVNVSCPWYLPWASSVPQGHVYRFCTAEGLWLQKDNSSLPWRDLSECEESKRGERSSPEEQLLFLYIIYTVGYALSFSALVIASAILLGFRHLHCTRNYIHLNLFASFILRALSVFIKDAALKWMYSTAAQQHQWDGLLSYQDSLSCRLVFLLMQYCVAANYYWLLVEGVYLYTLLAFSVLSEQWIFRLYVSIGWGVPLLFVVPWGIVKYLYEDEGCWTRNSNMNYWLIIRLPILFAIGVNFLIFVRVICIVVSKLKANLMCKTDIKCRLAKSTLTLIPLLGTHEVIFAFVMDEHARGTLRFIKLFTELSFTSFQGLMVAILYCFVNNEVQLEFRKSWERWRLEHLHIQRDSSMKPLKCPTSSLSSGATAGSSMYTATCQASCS

human GLP-1R = human GLP-1R (Homo sapiens, UniProt P43220); assay: [125I]-GLP-1 binding (SPA), human GLP-1 receptor; design: expressed in transfected cells; crude membranes; conditions: read-out: hGLP1R Ki, (nM) (SEM, n)
Chain of human GLP-1R (P43220 24-463): as above
Method in brief: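 Assay buffer: HEPES 25 mM, pH 7.4, CaCl2 2.5 mM, MgCl2 1 mM, with EDTA-free protease inhibitors. Receptor came from crude cell membranes prepared by homogenization and centrifugation at 4° C. IC50s came from four-parameter fits (maximum, minimum, IC50, Hill slope) and were expressed as Ki geometric means with SEM.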

Row | SMILES | Ki (human GIP receptor) [nM] | Ki (human Gcg receptor) [nM] | EC50 [1] [nM] | EC50 [2] [nM] | Ki (human GLP-1R) [nM]
1 | CC[C@H](C)[C@H](NC(=O)[C@H](CC(C)C)NC(=O)[C@H](Cc1ccc(O)cc1)NC(=O)[C@H](CCC(=O)O)NC(=O)[C@@H](NC(=O)[C@H](Cc1ccccc1)NC(=O)[C@H](CCC(=O)O)NC(=O)C(C)(C)NC(=O)[C@H](CCC(N)=O)NC(=O)[C@H](C)NC(=O)[C@H](CCCCNC(=O)COCCOCCNC(=O)COCCOCCNC(=O)CC[C@H](NC(=O)CCCCCCCCCCCCCCCCCCC(=O)O)C(=O)O)NC(=O)[C@H](CCC(=O)O)NC(=O)[C@H](CC(=O)O)NC(=O)[C@H](CC(C)C)NC(=O)[C@](C)(CC(C)C)NC(=O)[C@@H](NC(=O)[C@H](CO)NC(=O)[C@H](Cc1ccc(O)cc1)NC(=O)[C@H](CC(=O)O)NC(=O)[C@H](CO)NC(=O)[C@@H](NC(=O)[C@](C)(Cc1ccccc1)NC(=O)[C@@H](NC(=O)CNC(=O)[C@H](CCC(=O)O)NC(=O)C(C)(C)NC(=O)[C@@H](N)Cc1ccc(O)cc1)[C@@H](C)O)[C@@H](C)O)[C@@H](C)CC)[C@@H](C)CC)C(=O)N[C@@H](CCC(=O)O)C(=O)NCC(=O)NCC(=O)N1CCC[C@H]1C(=O)N[C@@H](CO)C(=O)N[C@@H](CO)C(=O)NCC(=O)N[C@@H](C)C(=O)N1CCC[C@H]1C(=O)N1CCC[C@H]1C(=O)N1CCC[C@H]1C(=O)N[C@@H](CO)C(N)=O [Example 116] (H-Y[Aib]EGT[αMeF]TSDYSI[αMeL]LDEK([AEEA-AEEA-γGlu-C20 diacid])AQ[Aib]EFIEYLIEGGPSSGAPPPS-NH2) | 0.0597 | 137 | 0.0867 | 0.0703 | 6.8
2 | CC[C@H](C)[C@H](NC(=O)[C@H](CC(C)C)NC(=O)[C@H](Cc1ccc(O)cc1)NC(=O)[C@H](CCC(=O)O)NC(=O)[C@@H](NC(=O)[C@H](Cc1ccccc1)NC(=O)[C@H](C)NC(=O)[C@H](CCC(N)=O)NC(=O)[C@H](CCC(N)=O)NC(=O)[C@H](C)NC(=O)[C@H](CCCCNC(=O)COCCOCCNC(=O)COCCOCCNC(=O)CC[C@H](NC(=O)CCCCCCCCCCCCCCCCC(=O)O)C(=O)O)NC(=O)[C@H](CCCCN)NC(=O)[C@H](CC(=O)O)NC(=O)[C@H](CC(C)C)NC(=O)[C@H](CC(C)C)NC(=O)[C@@H](NC(=O)[C@H](CO)NC(=O)[C@H](Cc1ccc(O)cc1)NC(=O)[C@H](CC(=O)O)NC(=O)[C@H](CO)NC(=O)[C@@H](NC(=O)[C@H](Cc1ccccc1)NC(=O)[C@@H](NC(=O)CNC(=O)[C@H](CCC(=O)O)NC(=O)C(C)(C)NC(=O)[C@@H](N)Cc1ccc(O)cc1)[C@@H](C)O)[C@@H](C)O)[C@@H](C)CC)[C@@H](C)CC)C(=O)N[C@@H](CCC(=O)O)C(=O)NCC(=O)NCC(N)=O [Example 294] (H-Y[Aib]EGTFTSDYSILLDKK([AEEA-AEEA-γGlu-C18 diacid])AQQAFIEYLIEGG-NH2) | 0.205 | 629 | 0.183 | 0.185 | 2.92
3 | CC[C@H](C)[C@H](NC(=O)[C@H](CC(C)C)NC(=O)[C@H](Cc1ccc(O)cc1)NC(=O)[C@H](CCC(=O)O)NC(=O)[C@@H](NC(=O)[C@H](Cc1ccccc1)NC(=O)[C@H](C)NC(=O)C(C)(C)NC(=O)[C@H](CCC(N)=O)NC(=O)[C@H](C)NC(=O)[C@H](CCCCNC(=O)COCCOCCNC(=O)COCCOCCNC(=O)CC[C@H](NC(=O)CCCCCCCCCCCCCCCCC(=O)O)C(=O)O)NC(=O)[C@H](CCCCN)NC(=O)[C@H](CC(=O)O)NC(=O)[C@H](CC(C)C)NC(=O)[C@H](CC(C)C)NC(=O)[C@@H](NC(=O)[C@H](CO)NC(=O)[C@H](Cc1ccc(O)cc1)NC(=O)[C@H](CC(=O)O)NC(=O)[C@H](CO)NC(=O)[C@@H](NC(=O)[C@](C)(Cc1ccccc1F)NC(=O)[C@@H](NC(=O)CNC(=O)[C@H](CCC(=O)O)NC(=O)C(C)(C)NC(=O)[C@@H](N)Cc1ccc(O)cc1)[C@@H](C)O)[C@@H](C)O)[C@@H](C)CC)[C@@H](C)CC)C(=O)N[C@@H](C)C(=O)NCC(=O)NCC(=O)N1CCC[C@H]1C(=O)N[C@@H](CO)C(=O)N[C@@H](CO)C(=O)NCC(N)=O [Example 313] (H-Y[Aib]EGT[αMePhe(2-F)]TSDYSILLDKK([AEEA-AEEA-γGlu-C18 diacid])AQ[Aib]AFIEYLIAGGPSSG-NH2) | 0.0261 | 27.6 | 0.0233 | 0.0388 | 0.815
4 | CC[C@H](C)[C@H](NC(=O)[C@H](CC(C)C)NC(=O)[C@H](Cc1ccc(O)cc1)NC(=O)[C@H](CCC(=O)O)NC(=O)[C@@H](NC(=O)[C@H](Cc1ccccc1)NC(=O)[C@H](C)NC(=O)C(C)(C)NC(=O)[C@H](CCC(N)=O)NC(=O)[C@H](C)NC(=O)[C@H](CCCCNC(=O)COCCOCCNC(=O)COCCOCCNC(=O)CC[C@H](NC(=O)CCCCCCCCCCCCCCCCCCC(=O)O)C(=O)O)NC(=O)[C@H](CCCCN)NC(=O)[C@H](CC(=O)O)NC(=O)[C@H](CC(C)C)NC(=O)[C@](C)(CC(C)C)NC(=O)[C@@H](NC(=O)[C@H](CO)NC(=O)[C@H](Cc1ccc(O)cc1)NC(=O)[C@H](CC(=O)O)NC(=O)[C@H](CO)NC(=O)[C@@H](NC(=O)[C@H](Cc1ccccc1)NC(=O)[C@@H](NC(=O)CNC(=O)[C@H](CCC(=O)O)NC(=O)C(C)(C)NC(=O)[C@@H](N)Cc1ccc(O)cc1)[C@@H](C)O)[C@@H](C)O)[C@@H](C)CC)[C@@H](C)CC)C(=O)N[C@@H](CCC(=O)O)C(=O)NCC(=O)NCC(N)=O [Example 62] (H-Y[Aib]EGTFTSDYSI[αMeL]LDKK([AEEA-AEEA-γGlu-C20 diacid])AQ[Aib]AFIEYLIEGG-NH2) | 0.0545 | 168 | 0.0601 | 0.159 | 2.03
5 | CC[C@H](C)[C@H](NC(=O)[C@H](CCCCN)NC(=O)[C@H](CC(=O)O)NC(=O)[C@H](CC(C)C)NC(=O)[C@H](CC(C)C)NC(=O)[C@@H](NC(=O)[C@H](CO)NC(=O)[C@H](Cc1ccc(O)cc1)NC(=O)[C@H](CC(=O)O)NC(=O)[C@H](CO)NC(=O)[C@@H](NC(=O)[C@H](Cc1ccccc1)NC(=O)[C@@H](NC(=O)CNC(=O)[C@H](CCC(=O)O)NC(=O)C(C)(C)NC(=O)[C@@H](N)Cc1ccc(O)cc1)[C@@H](C)O)[C@@H](C)O)[C@@H](C)CC)C(=O)N[C@@H](C)C(=O)N[C@@H](CCC(N)=O)C(=O)NC(C)(C)C(=O)N[C@@H](C)C(=O)N[C@@H](Cc1ccccc1)C(=O)N[C@H](C(=O)N[C@@H](CCC(=O)O)C(=O)N[C@@H](Cc1ccc(O)cc1)C(=O)N[C@@H](CC(C)C)C(=O)N[C@H](C(=O)N[C@@H](CCC(=O)O)C(=O)NCC(=O)NCC(=O)N[C@@H](CCCCNC(=O)COCCOCCNC(=O)COCCOCCNC(=O)CC[C@H](NC(=O)CCCCCCCCCCCCCCCCCCC(=O)O)C(=O)O)C(=O)N[C@@H](CO)C(=O)N[C@@H](CO)C(=O)NCC(=O)N[C@@H](C)C(=O)N1CCC[C@H]1C(=O)N1CCC[C@H]1C(=O)N1CCC[C@H]1C(=O)N[C@@H](CO)C(N)=O)[C@@H](C)CC)[C@@H](C)CC [Example 40] (H-Y[Aib]EGTFTSDYSILLDKIAQ[Aib]AFIEYLIEGGK([AEEA-AEEA-γGlu-C20 diacid])SSGAPPPS-NH2) | 0.0345 | 150 | 0.136 | 0.746 | 7.56
6 | CC[C@H](C)[C@H](NC(=O)[C@H](CCCCN)NC(=O)[C@H](CC(=O)O)NC(=O)[C@H](CC(C)C)NC(=O)[C@H](CC(C)C)NC(=O)[C@@H](NC(=O)[C@H](CO)NC(=O)[C@H](Cc1ccc(O)cc1)NC(=O)[C@H](CC(=O)O)NC(=O)[C@H](CO)NC(=O)[C@@H](NC(=O)[C@H](Cc1ccccc1)NC(=O)[C@@H](NC(=O)CNC(=O)[C@H](CCC(=O)O)NC(=O)C(C)(C)NC(=O)[C@@H](N)Cc1ccc(O)cc1)[C@@H](C)O)[C@@H](C)O)[C@@H](C)CC)C(=O)N[C@@H](C)C(=O)N[C@@H](CCC(N)=O)C(=O)NC(C)(C)C(=O)N[C@@H](C)C(=O)N[C@@H](Cc1ccccc1)C(=O)N[C@H](C(=O)N[C@@H](CCCCNC(=O)COCCOCCNC(=O)COCCOCCNC(=O)CC[C@H](NC(=O)CCCCCCCCCCCCCCCCCCC(=O)O)C(=O)O)C(=O)N[C@@H](Cc1ccc(O)cc1)C(=O)N[C@@H](CC(C)C)C(=O)N[C@H](C(=O)N[C@@H](CCC(=O)O)C(=O)NCC(=O)NCC(=O)N1CCC[C@H]1C(=O)N[C@@H](CO)C(=O)N[C@@H](CO)C(=O)NCC(=O)N[C@@H](C)C(=O)N1CCC[C@H]1C(=O)N1CCC[C@H]1C(=O)N1CCC[C@H]1C(=O)N[C@@H](CO)C(N)=O)[C@@H](C)CC)[C@@H](C)CC [Example 34] (H-Y[Aib]EGTFTSDYSILLDKIAQ[Aib]AFIK([AEEA-AEEA-γGlu-C20 diacid])YLIEGGPSSGAPPPS-NH2) | 0.0467 | 134 | 0.36 | 1.56 | 3.41
